Here are results for 1 compound from patent publication US6653344B2, “Pharmaceutical preparations containing a dibenzocyclooctane lignan derivative for treatment of neurodegenerative disease” (Elcom Bio Technology Co., Ltd., priority 2000, dated 2003).

In this experiment the test system is nitric oxide (NO) content in glutamate-damaged primary cultured rat cortical cells. Briefly: Measurement of nitrite (Griess reagent), NO content. As to conditions: compound 1 M (1 μM) for 1 hr before 100 M glutamate, 24 hr. The format is cell-based. Here is the method:
The content of nitrite isolated into culture broth from first cultured cortical cells was assayed by using Griess reagent by Dawson's method (Dawson V L, Brahbhatt H P, Mong J A and Dawson T M (1994) Expression of inducible nitric oxide synthase causes delayed neurotoxicity in primary neuronal-glial cortical cultures. Neuropharmacology 33: 1425-1430).
In case glutamate is treated to first cultured cortical cells of mice, formation of NO is increased. […] When schizandrin is treated at the 1 μM concentration, it decreased NO content increased by glutamate. […] When deoxyschizandrin, gomisin N and wuweizisu C are treated at 1 uM concentration to first cultured cortical cells toxicity-induced by glutamate, those maintained about 50% of normal state activity of GSH-px and glutathione decreased by glutamate and have protective activity on the activity of antioxidant enzymes.
Rat cortical cultures were treated with compounds at the concentration of 1 M for 1 hr before exposure to 100 M glutamate and then maintained for 24 hr. Values given represent the mean SD (n=3).

For `COc1cc2c(c(OC)c1OC)-c1c(cc(OC)c(OC)c1OC)C[C@](C)(O)[C@@H](C)C2` [schizandrin], the “Protection (NO content)” value was 40.2%.
